The values that follow come from US5019576A, “2-substituted N,N'-ditrimethoxybenzoyl piperazines and therapeutic compositions containing them” (Societe de Conseils de Recherches et d'Applications …, priority 1989, dated 1991).

Test [1] deals with platelet aggregation induced by 2.5 nm of PAF. Description: Inhibition of PAF-induced platelet aggregation on platelet rich plasma (Born method). The class given is cell-based, New Zealand rabbits. The settings on record: Oryctolagus cuniculus; rabbit platelet rich plasma, 2.5 nm PAF. Here is the method: 1. --Inhibition of the platelets aggregation on New Zealand Rabbits
The experimentation was conducted on platelets with plasma of New Zealand rabbits.
Blood samples were taken from auricular artery and placed in a citrate buffer (3.8%; pH 7.4); blood was further centrifugated for 15 mn at 1200 rpm.
The tested sample was prepared in DMSO, then poured on platelets rich plasma for 1 mn, then a dose of 2.5 nm of PAF was added.
The determination is made on a Cronolog Coultronics apparatus which determines the transmission percentage corresponding to the maximum height of the peak before the desaggregation.
The percentage of variation of the inhibition with respect to the transmission percentage is calculated (control: pure DMSO).
This method was described in detail in LABORATORY INVESTIGATIONS, Vol. 41, No. 3, p. 275, 1979, JEAN-PIERRE CAZENAVE, Dr. MED., JACQUES BENVENISTE, DR. MED., AND J. FRASER MUSTARD, M. D., "Aggregation of rabbits platelets by platelet-activating factor is independent of the release reaction and the arachidonate pathway and inhibited by membrane-active drugs".

In test [2] the target is T1, PAF receptors (Oryctolagus cuniculus, UniProt G1TEI7).
T1 construct: from tissue; host or cells: rabbit platelet homogenate
Description: Binding studies on a rabbit platelet homogenate (3[H]-PAF). The source says: This activity was evidenced by binding studies on a rabbit platelet homogenate. In this preparation indeed, those derivatives inhibit the specific bond of ^3 [H]--PAF, whereas they are without significative effect on the binding of the appropriate ligands on tissue homogenates rich in benzodiazepinic (central and peripheral), histaminergic (H1 and H2) and adrenergic (α1, α2, β2, β3) receptors, to angiotensine II or to ANF. Their affinity is therefore characteristic of PAF receptors.

T1 sequence (G1TEI7 1-342): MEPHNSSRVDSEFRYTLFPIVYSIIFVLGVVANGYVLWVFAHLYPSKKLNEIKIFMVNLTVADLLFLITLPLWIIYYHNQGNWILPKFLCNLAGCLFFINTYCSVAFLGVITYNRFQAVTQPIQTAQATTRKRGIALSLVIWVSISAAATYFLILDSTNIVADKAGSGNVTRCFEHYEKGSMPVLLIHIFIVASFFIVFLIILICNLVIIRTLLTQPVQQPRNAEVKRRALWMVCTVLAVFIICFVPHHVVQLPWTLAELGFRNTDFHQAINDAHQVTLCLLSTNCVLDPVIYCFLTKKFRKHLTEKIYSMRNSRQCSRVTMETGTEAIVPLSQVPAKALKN

As to `COc1cc(C(=O)N2CCN(C(=O)c3cc(OC)c(OC)c(OC)c3)C(CCc3ccccc3)C2)cc(OC)c1OC` (centres unmarked) [Example 10, N,N'-bis-(3',4',5'-trimethoxybenzoyl)-2-n-(phenethyl) piperazine], the values for the IC50 in test [1] and in test [2] were 5400 nM and 4100 nM, respectively.
Taken in the same sequence, the figures for `COc1ccc(CCC2CN(C(=O)c3cc(OC)c(OC)c(OC)c3)CCN2C(=O)c2cc(OC)c(OC)c(OC)c2)cc1` (centres unmarked) [Example 12, N,N'-bis-(3',4',5'-trimethoxybenzoyl)-2-n-(p-(methoxy)phenethyl) piperazine] were 62 nM and 60 nM.
Taken in the same sequence, the figures for `COc1cc(C(=O)N2CCN(C(=O)c3cc(OC)c(OC)c(OC)c3)C(CCC(C)(C)C)C2)cc(OC)c1OC` (centres unmarked) [Example 2, N,N'-bis-(3',4',5'-trimethoxybenzoyl) 2-(3",3"-dimethyl) -butyl piperazine] were 710 nM and 250 nM.
Taken in the same sequence, the figures for `CCCCCCCCCCCCCCCC1CN(C(=O)c2cc(OC)c(OC)c(OC)c2)CCN1C(=O)c1cc(OC)c(OC)c(OC)c1` (centres unmarked) [Example 5, N,N'-bis-(3',4',5'-trimethoxybenzoyl) 2-n-pentadecyl piperazine] were 5800 nM and 6300 nM.
Turning to `CCCCCC1CN(C(=O)c2cc(OC)c(OC)c(OC)c2)CCN1C(=O)c1cc(OC)c(OC)c(OC)c1` (centres unmarked) [Example 4, N,N'-bis-(3',4',5'-trimethoxybenzoyl) 2-n-pentyl piperazine], the IC50 (usually the midpoint of a concentration-inhibition curve) turned out to be 190 nM in test [1] and 32 nM in test [2].
In the case of `CCCCCCCCCCCCCCCCCCCC1CN(C(=O)c2cc(OC)c(OC)c(OC)c2)CCN1C(=O)c1cc(OC)c(OC)c(OC)c1` (centres unmarked) [Example 6, N,N'-bis-(3',4',5'-trimethoxybenzoyl) 2-n-nonadecyl piperazine], the values for the IC50 in test [1] and in test [2] were 2400 nM and 4700 nM, respectively.
The corresponding values for `COc1cc(C(=O)N2CCN(C(=O)c3cc(OC)c(OC)c(OC)c3)C(CCCc3ccc(C)cc3)C2)cc(OC)c1OC` (centres unmarked) [Example 13, N,N'-bis-(3',4',5'-trimethoxybenzoyl)-2-n-(p-(methyl)phenylpropyl) piperazine] are 350 nM and 140 nM.
On to `COc1cc(C(=O)N2CCN(C(=O)c3cc(OC)c(OC)c(OC)c3)C(CCCc3ccccc3)C2)cc(OC)c1OC` (centres unmarked) [Example 11, N,N'-bis-(3',4',5'-trimethoxybenzoyl)-2-n-(phenyl-n-propyl) piperazine], for which the results for the IC50 in test [1] and in test [2] were 11 nM and 31 nM, respectively.
Taken in the same sequence, the figures for `COc1cc(C(=O)N2CCN(C(=O)c3cc(OC)c(OC)c(OC)c3)C(CCc3ccc(Cl)cc3)C2)cc(OC)c1OC` (centres unmarked) [Example 14, N,N'-bis-(3',4',5'-trimethoxybenzoyl)-2-n-(p-(chloro)phenethyl) piperazine] were 170 nM and 450 nM.
Taken in the same sequence, the figures for `COc1cc(C(=O)N2CCN(C(=O)c3cc(OC)c(OC)c(OC)c3)C(CCC3CCCCC3)C2)cc(OC)c1OC` (centres unmarked) [Example 7, N,N'-bis-(3',4',5'-trimethoxybenzoyl)-2-n-(cyclohexylethyl) piperazine] were 430 nM and 740 nM.
The corresponding values for `COc1cc(C(=O)N2CCN(C(=O)c3cc(OC)c(OC)c(OC)c3)C(CCc3cccc(Cl)c3Cl)C2)cc(OC)c1OC` (centres unmarked) [Example 15, N,N'-bis-(3',4',5,-trimethoxybenzoyl)-2-n-(2,3-(dichloro)phenethyl) piperazine] are 370 nM and 680 nM.
For the molecule `COc1cc(C(=O)N2CCN(C(=O)c3cc(OC)c(OC)c(OC)c3)C(Cc3ccccc3)C2)cc(OC)c1OC` (centres unmarked) [Example 9, N,N'-bis-(3',4',5'-trimethoxybenzoyl)-2-n-(benzyl) piperazine], the half-inhibitory concentration (IC50) is 410 nM in test [1] and 730 nM in test [2].
Taken in the same sequence, the figures for `COc1cc(C(=O)N2CCN(C(=O)c3cc(OC)c(OC)c(OC)c3)C(C)C2)cc(OC)c1OC` (centres unmarked) [Example 3, N,N'-bis-(3',4',5'-trimethoxybenzoyl) 2-methyl piperazine] were 560 nM and 670 nM.
Take `C=CCc1ccc(CCC2CN(C(=O)c3cc(OC)c(OC)c(OC)c3)CCN2C(=O)c2cc(OC)c(OC)c(OC)c2)cc1` (centres unmarked) [Example 16, N,N'-bis-(3',4',5'-trimethoxybenzoyl)-2-n-(p-(allyl)phenethyl) piperazine]: the half-maximal inhibitory concentration (IC50) turned out to be 290 nM in test [1] and 530 nM in test [2].
Regarding `COc1cc(CCC2CN(C(=O)c3cc(OC)c(OC)c(OC)c3)CCN2C(=O)c2cc(OC)c(OC)c(OC)c2)cc(OC)c1OC` (centres unmarked) [Example 8, N,N'-bis-(3',4',5'-trimethoxybenzoyl)-2-n-(3,4,5-(trimethoxy)phenethyl) piperazine], the IC50 in test [1] was determined as 71 nM; in test [2], 38 nM.
As for `CCCCCCCCC1CN(C(=O)c2cc(OC)c(OC)c(OC)c2)CCN1C(=O)c1cc(OC)c(OC)c(OC)c1` (centres unmarked) [Example 1, N,N'-bis-(3',4',5'-trimethoxybenzoyl)-2-n-octyl piperazine], the results for the IC50 in test [1] and in test [2] were 120 nM and 62 nM, respectively.
